Results as given in patent publication US6365137B1, “Skin whitening agents” (Collaborative Laboratories, Inc., priority 1999, dated 2002).

Columns and labels:
Cloudman S91 melanocytes = test: Cell-based whitening/tanning assay (melanocyte pigmentation assay); settings: concentration 30 (30μM in method), 5-day treatment, 10nM MSH
Method: The melanocyte pigmentation assay measures a test sample's ability to inhibit pigmentation. […] After a 5-day treatment period with each condition tested in triplicate wells, the cells were harvested by washing with PBS and adding 5% trichloroacetic acid to each well. After a 15 minute incubation the acid was aspirated and replaced with 200μl/well of 10% dimethyl sulfoxide/1N sodium hydroxide. The plates were sealed and incubated at 65° C. for 30 minutes. 200μl of each digestion mixture was then transferred to a well of a 96-well microtiter plate and optical densities were read at 405 nm.
An EC50 (the concentration of test sample that inhibits 50% of pigmentation) was calculated for each sample.

[1] = tested on: mushroom tyrosinase (EC 1.14.18.1); test: Tyrosinase inhibition assay (test for whitening activity); format: biochemical
Method: Tyrosinase activity is determined in reaction mixtures containing […], 30 units/ml of mushroom tyrosinase (EC 1.14.18.1), 75 mM sodium phosphate (pH 7.5), and test sample at the indicated concentrations. The reaction is conducted at room temperature and is monitored by measuring the increase in OD405 as melanin pigment is produced.
Tyrosinase activity was determined by measuring the rate of change of optical density at 490 nm as tyrosine was converted into dopachrome. (Tyrosinase catalyzes the conversion of tyrosine into DOPA quinone, which spontaneously converts into dopachrome.) The rate of tyrosinase activity in the presence of various concentrations of test sample was measured at room temperature in a reaction mixture containing 50 mM sodium phosphate (pH 6.75), 275 μM tyrosine and 25U/ml mushroom tyrosinase (wherein U refers to the units of enzyme activity. Readings were made at one minute intervals for ten minutes and the reaction rate was calculated by linear regression. Each concentration was run in triplicate. Inhibition of tyrosinase activity was expressed as a percentage of the activity measured for the untreated control mixture (no test sample). An EC50 (the concentration of test sample that inhibits 50% of tyrosinase activity) was calculated.

Question: How did the inhibition at 30 µM (Cloudman S91 melanocytes; Melanocyte, 120 h, read-out: % Stimulation (+)/ Inhibition (−) of pigmentation) turn out when `Oc1ccc(O)cc1` [Hydroquinone] was run?
Answer: 36.6%

Question: And the “mean (optical density at 405 nm, pigmentation)” value (Cloudman S91 melanocytes)?
Answer: 0.801

Question: What about the “% inhibition (tyrosinase)” value ([1]; concentration 1.25 (M)) of the same molecule?
Answer: 26.7%

Question: And the “mod/min mean (tyrosinase reaction rate)” value ([1]; concentration 1.25 (M))?
Answer: 7.95 mod/min

Question: What about the “% inhibition (tyrosinase)” value ([1]; concentration 2.5 (M)) of the same molecule?
Answer: 45.5%

Question: What about the “mod/min mean (tyrosinase reaction rate)” value ([1]; concentration 2.5 (M)) of the same molecule?
Answer: 5.92 mod/min

Question: And the “% inhibition (tyrosinase)” value ([1]; concentration 10.5 (M))?
Answer: 75.8%

Question: What about the “mod/min mean (tyrosinase reaction rate)” value ([1]; concentration 10.5 (M)) of the same molecule?
Answer: 2.63 mod/min

Question: And the “% inhibition (tyrosinase)” value ([1]; concentration 20 (M))?
Answer: 92.2%

Question: What about the “mod/min mean (tyrosinase reaction rate)” value ([1]; concentration 20 (M)) of the same molecule?
Answer: 0.85 mod/min
